Several values for one entry are separate records, joined by “and”; a condition that tells them apart may be missing. Equal entries are not always repeated. Toxic doses and inconclusive results are not listed. Rule for the calls: active = survival T/C of 150% or more; inactive = T/C below 125% in these data.
Tested on: CD2F1 mice, L1210 leukemia ip, survival T/C
Assay: NCI In Vivo Anticancer Drug Screen. Data for tumor model L1210 Leukemia (intraperitoneal) in CD2F1 (CDF1) mice
Settings: higher = longer survival
How it was run: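 Activity against a transplanted murine tumor was judged by comparing the compound group with a vehicle group. The outcome in the treated animals was divided by that in the controls.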

[1] = endpoint: mean survival time, dose: 50.0 mg/kg/injection, schedule: Q01DX009 (ip), vehicle: saline with Tween-80
[2] = endpoint: mean survival time, dose: 100.0 mg/kg/injection, schedule: Q01DX009 (ip), vehicle: saline with Tween-80
[3] = endpoint: mean survival time, dose: 200.0 mg/kg/injection, schedule: Q01DX009 (ip), vehicle: saline with Tween-80
[4] = endpoint: mean survival time, dose: 100.0 mg/kg/injection, schedule: Q04DX003 (ip), vehicle: saline
[5] = endpoint: mean survival time, dose: 200.0 mg/kg/injection, schedule: Q04DX003 (ip), vehicle: saline
[6] = endpoint: mean survival time, dose: 400.0 mg/kg/injection, schedule: Q01DX009 (ip), vehicle: saline with Tween-80
[7] = endpoint: mean survival time, dose: 100.0 mg/kg/injection, schedule: Q04DX003 (ip), vehicle: saline with Tween-80
[8] = endpoint: mean survival time, dose: 200.0 mg/kg/injection, schedule: Q04DX003 (ip), vehicle: saline with Tween-80
[9] = endpoint: mean survival time, dose: 400.0 mg/kg/injection, schedule: Q04DX003 (ip), vehicle: saline with Tween-80
[10] = endpoint: mean survival time, dose: 50.0 mg/kg/injection, schedule: Q04DX002 (ip), vehicle: saline with Tween-80
[11] = endpoint: mean survival time, dose: 100.0 mg/kg/injection, schedule: Q04DX002 (ip), vehicle: saline with Tween-80
[12] = endpoint: mean survival time, dose: 200.0 mg/kg/injection, schedule: Q04DX002 (ip), vehicle: saline with Tween-80
[13] = endpoint: mean survival time, dose: 100.0 mg/kg/injection, schedule: Q01DX001 (ip), vehicle: saline
[14] = endpoint: mean survival time, dose: 200.0 mg/kg/injection, schedule: Q01DX001 (ip), vehicle: saline
[15] = endpoint: mean survival time, dose: 100.0 mg/kg/injection, schedule: Q01DX001 (ip), vehicle: saline with Tween-80
[16] = endpoint: mean survival time, dose: 200.0 mg/kg/injection, schedule: Q01DX001 (ip), vehicle: saline with Tween-80
[17] = endpoint: mean survival time, dose: 400.0 mg/kg/injection, schedule: Q01DX001 (ip), vehicle: saline with Tween-80
[18] = endpoint: mean survival time, dose: 25.0 mg/kg/injection, schedule: Q04DX002 (ip), vehicle: saline with Tween-80

Measured: T/C

ClC1CC[N-]CC1.ClC1CC[N-]CC1.O=C(O)CC(=O)O.[Pt+2]
inactive: endpoint: mean survival time, dose: 12.5 mg/kg/injection, schedule: Q01DX009 (ip), vehicle: saline with Tween-80 96 % of control | endpoint: mean survival time, dose: 25.0 mg/kg/injection, schedule: Q01DX009 (ip), vehicle: saline with Tween-80 94 % of control | [1] 102 % of control | [2] 104 % of control | [3] 96 % of control

Nc1nc(N)c(N=O)c(N)n1
inactive: endpoint: mean survival time, dose: 100.0 mg/kg/injection, schedule: Q01DX009 (ip), vehicle: saline 98 % of control | [4] 103 % of control | endpoint: mean survival time, dose: 200.0 mg/kg/injection, schedule: Q01DX009 (ip), vehicle: saline 97 % of control | [5] 97 % of control | endpoint: mean survival time, dose: 400.0 mg/kg/injection, schedule: Q01DX009 (ip), vehicle: saline 100 % of control | endpoint: mean survival time, dose: 400.0 mg/kg/injection, schedule: Q04DX003 (ip), vehicle: saline 102 % of control

Cc1ccc([N+](=O)[O-])cc1NC(=O)Nc1onc(C)c1C
inactive: endpoint: mean survival time, dose: 12.5 mg/kg/injection, schedule: Q01DX009 (ip), vehicle: Klucel (hydroxypropylcellulose) (HPC) 89 % of control | endpoint: mean survival time, dose: 25.0 mg/kg/injection, schedule: Q01DX009 (ip), vehicle: Klucel (hydroxypropylcellulose) (HPC) 95 % of control

Cc1ccc([N+](=O)[O-])cc1NC(=O)NNC(=O)CNC(=O)NCc1ccco1
inactive: [2] 91 % of control | [3] 89 % of control | [6] 97 % of control

CC(=O)CC(=O)c1ccccc1.CC(=O)CC(=O)c1ccccc1.CC(=O)CC(=O)c1ccccc1.[Tb]
inactive: [7] 93 % of control | [8] 91 % of control | [9] 88 % of control

CS(=O)(=O)Oc1ccccc1OS(C)(=O)=O
inactive: [10] 113 % of control | [11] 113 % of control | [12] 101 % of control

CCN(CC)Cc1cc([N+](=O)[O-])ccc1O
inactive: endpoint: mean survival time, dose: 75.0 mg/kg/injection, schedule: Q01DX001 (ip), vehicle: saline 104 % of control | endpoint: mean survival time, dose: 150.0 mg/kg/injection, schedule: Q01DX001 (ip), vehicle: saline 100 % of control

CCN(CC)CCCNc1cc(OC)cc2nc3cc(Cl)ccc3nc12
inactive: endpoint: mean survival time, dose: 12.5 mg/kg/injection, schedule: Q01DX009 (ip), vehicle: suspension in saline 98 % of control | endpoint: mean survival time, dose: 25.0 mg/kg/injection, schedule: Q01DX009 (ip), vehicle: suspension in saline 100 % of control and 101 % of control | endpoint: mean survival time, dose: 50.0 mg/kg/injection, schedule: Q01DX009 (ip), vehicle: suspension in saline 98 % of control and 105 % of control | endpoint: mean survival time, dose: 100.0 mg/kg/injection, schedule: Q01DX009 (ip), vehicle: suspension in saline 101 % of control and 108 % of control | endpoint: mean survival time, dose: 200.0 mg/kg/injection, schedule: Q01DX009 (ip), vehicle: suspension in saline 112 % of control

CC(C)NC(=O)c1ccc(N/N=[N+](/C)[O-])cc1
inactive: endpoint: mean survival time, dose: 6.25 mg/kg/injection, schedule: Q01DX005 (ip), vehicle: saline with Tween-80 98 % of control | endpoint: mean survival time, dose: 12.5 mg/kg/injection, schedule: Q01DX005 (ip), vehicle: saline with Tween-80 100 % of control | endpoint: mean survival time, dose: 25.0 mg/kg/injection, schedule: Q01DX005 (ip), vehicle: saline with Tween-80 107 % of control | endpoint: mean survival time, dose: 50.0 mg/kg/injection, schedule: Q01DX005 (ip), vehicle: saline with Tween-80 100 % of control | endpoint: mean survival time, dose: 100.0 mg/kg/injection, schedule: Q01DX005 (ip), vehicle: saline with Tween-80 109 % of control | [2] 107 % of control | [7] 94 % of control | [3] 110 % of control | [8] 100 % of control | [6] 117 % of control | [9] 110 % of control

CCOC(=O)C(c1ccccc1)c1ccccc1
inactive: [7] 102 % of control | [8] 111 % of control | [9] 103 % of control

CSc1ccc(OC(=O)Nc2ccccc2F)cc1
inactive: [7] 101 % of control | [8] 112 % of control

CC(=O)Oc1ccc(Cl)cc1
inactive: [2] 95 % of control | [7] 103 % of control | [3] 98 % of control | [8] 89 % of control | [9] 89 % of control

CCNc1nc(NC(C)C)nc(OC)n1
inactive: [1] 98 % of control | [2] 93 % of control | [4] 101 % of control | [3] 96 % of control | [5] 103 % of control

CC1CCC(C(C)C)/C(=N/NC(=O)CC#N)C1 (stereo not drawn)
inactive: [13] 98 % of control | [14] 95 % of control

CCCCCCCCCCNCCS
inactive: endpoint: mean survival time, dose: 5.0 mg/kg/injection, schedule: Q01DX009 (ip), vehicle: saline with Tween-80 104 % of control | endpoint: mean survival time, dose: 20.0 mg/kg/injection, schedule: Q01DX009 (ip), vehicle: saline with Tween-80 93 % of control

CCOC(=O)c1ccc(NC(=O)OCc2ccco2)cc1
inactive: [2] 92 % of control and 98 % of control | [11] 88 % of control and 102 % of control | [7] 94 % of control | [3] 92 % of control and 100 % of control | [12] 86 % of control and 91 % of control | [8] 87 % of control | [6] 113 % of control and 96 % of control | endpoint: mean survival time, dose: 400.0 mg/kg/injection, schedule: Q04DX002 (ip), vehicle: saline with Tween-80 87 % of control and 88 % of control | [9] 89 % of control

c1ccc2c(c1)nnn2-c1ccncc1
inactive: [7] 91 % of control | [8] 104 % of control

COC(=O)c1cc(C)ccc1O
inactive: [2] 96 % of control | [7] 90 % of control | [3] 101 % of control | [8] 93 % of control | [9] 100 % of control

[N-]=[N+]=CC(=O)CCC(=O)C=[N+]=[N-]
inactive: endpoint: mean survival time, dose: 12.5 mg/kg/injection, schedule: Q01DX009 (ip), vehicle: other 106 % of control | endpoint: mean survival time, dose: 25.0 mg/kg/injection, schedule: Q01DX009 (ip), vehicle: other 90 % of control

COc1ccc(C[C@H](N)C(=O)NC2C(CO)OC(n3cnc4c(N(C)C)ncnc43)C2O)cc1 (stereo partly drawn)
inactive: endpoint: median survival time, dose: 25.0 mg/kg/injection, schedule: Q01DX005 (ip), vehicle: water 104 % of control | endpoint: median survival time, dose: 50.0 mg/kg/injection, schedule: Q01DX005 (ip), vehicle: water 111 % of control | endpoint: median survival time, dose: 100.0 mg/kg/injection, schedule: Q01DX005 (ip), vehicle: water 100 % of control

C=C1C(=O)OCC1C(=O)O (stereo not drawn)
inactive: endpoint: mean survival time, dose: 4.0 mg/kg/injection, schedule: Q01DX009 (ip), vehicle: saline 97 % of control and 106 % of control | endpoint: mean survival time, dose: 8.0 mg/kg/injection, schedule: Q01DX009 (ip), vehicle: saline 96 % of control and 101 % of control | endpoint: mean survival time, dose: 16.0 mg/kg/injection, schedule: Q01DX009 (ip), vehicle: saline 101 % of control and 110 % of control | endpoint: mean survival time, dose: 32.0 mg/kg/injection, schedule: Q01DX009 (ip), vehicle: saline 104 % of control and 110 % of control | endpoint: mean survival time, dose: 64.0 mg/kg/injection, schedule: Q01DX009 (ip), vehicle: saline 88 % of control

Nc1ccccc1CCc1ccccc1N
inactive: [7] 100 % of control | [8] 102 % of control | [9] 93 % of control

CC(=O)OC1CC2CC1C1C=CCC21 (stereo not drawn)
inactive: [15] 97 % of control | [16] 95 % of control | [17] 100 % of control

COC1(O)C(=O)c2ccccc2OC1(OC)c1ccc(Cl)cc1 (stereo not drawn)
inactive: endpoint: mean survival time, dose: 50.0 mg/kg/injection, schedule: Q01DX001 (ip), vehicle: saline 98 % of control | [13] 102 % of control | [14] 98 % of control | endpoint: mean survival time, dose: 400.0 mg/kg/injection, schedule: Q01DX001 (ip), vehicle: saline 98 % of control

O=C(CCCN1CCC(O)(c2ccc(C(F)(F)F)cc2)CC1)c1ccc(N2CCC(O)CC2)cc1
inactive: endpoint: mean survival time, dose: 12.5 mg/kg/injection, schedule: Q04DX002 (ip), vehicle: saline with Tween-80 103 % of control | [18] 103 % of control | [10] 103 % of control

Cc1ccc(C#N)cn1
inactive: [2] 101 % of control | endpoint: mean survival time, dose: 100.0 mg/kg/injection, schedule: Q04DX003 (ip), vehicle: saline sonified 96 % of control | [3] 97 % of control | endpoint: mean survival time, dose: 200.0 mg/kg/injection, schedule: Q04DX003 (ip), vehicle: saline sonified 96 % of control | [6] 90 % of control | endpoint: mean survival time, dose: 400.0 mg/kg/injection, schedule: Q04DX003 (ip), vehicle: saline sonified 89 % of control

O=C1C2C3CCC(O3)C2C(=O)N1CO (stereo not drawn)
inactive: [18] 110 % of control | [10] 98 % of control | [11] 91 % of control

CCOC(=O)C1=C(C)NC(C)=C(C(=O)OCC)C1c1ccccc1Cl
inactive: endpoint: mean survival time, dose: 12.5 mg/kg/injection, schedule: Q01DX009 (ip), vehicle: acetone 102 % of control | endpoint: mean survival time, dose: 25.0 mg/kg/injection, schedule: Q01DX009 (ip), vehicle: acetone 100 % of control | endpoint: mean survival time, dose: 50.0 mg/kg/injection, schedule: Q01DX009 (ip), vehicle: acetone 104 % of control

Nc1cccc(CCc2ccc(-c3nc4ncnc(N)c4[nH]3)cc2)c1
inactive: [15] 86 % of control | [16] 88 % of control | [17] 93 % of control
